Read-outs that look alike come from different tables or passages of the source.
Experiments:
[1] = Acute toxicity, single intraperitoneal injection, probit analysis (LD50); assay type: in vivo, Mäusen; settings: mice, i.p.
Source text: Ihre akute Toxizität wurde an Mäusen (einmalige intraperitoneale Injektion) nach der Methode der Probit-Analyse nach Zichtfield, Wilcoxon, t949 untersucht. In Tabelle 2 sind die Parameter der akuten Toxizität (LDso) angegeben, die eine mäßige Toxizität der erfindungsgemäßen Verbindungen belegen.

[2] = Side effects and CNS/behaviour: tremor (TD50), sedative and m-cholinomimetic effects; assay type: in vivo
Source text: Von Interesse ist der Einfluß der erfindungsgemäßen Verbindungen auf das ZNS und das Verhalten der Tiere.

[3] = system: durch Skopolamin hervorgerufene Amnesie; assay: Dark avoidance assay (passive avoidance), scopolamine-induced amnesia; assay type: in vivo, Mäusen; settings: for Einfluß auf das Gedächtnis: Zahl der Tiere in %, bei denen die Skopolaminwirkung aufgehoben wurde: mice, compound s.c. 5 min before learning, Skopolamin i.p. 30 min before
Method: Die Mäuse wurden dabei in den hellen Abschnitt der Kammer gegeben, wonach die Latenzzeit für den Übertritt in die dunkle Kammer, in der die Tiere einem Stromschlag von 0,5 mA ausgesetzt waren, registriert wurde. Danach erhöhte sich die Latenzzeit für den Übertritt in den dunklen Abschnitt und verringerte sich die Aufenthaltsdauer. 30 Minuten vor dem Versuch wurden den Mäusen i.p. […] Gedächtnisstörungen hervorrufendes Skopolamin als Cholinblocker injiziert. Die erfindungsgemäßen Verbindungen wurden s.c. 5 Minuten vor dem Lernvorgang injiziert. Das Skopolamin verkürzt die Latenzzeit für den Übertritt in die dunkle Kammer, die erfindungsgemäßen Verbindungen stellen jedoch die Latenzzeitwerte wie bei der Kontrollgruppe wieder her oder bedingen ein geringfügiges Überschreiten dieser Werte (siehe Tabelle 2). Gleichzeitig wird die Aufenthaltsdauer der Tiere im dunklen Abschnitt der Kammer auf 36 bis 45 Hundertstel des Ausgangswerts verringert.

[4] = biological target: T1, Acetylcholinesterase menschlicher Erythrozyten (Homo sapiens, UniProt P22303); assay: Acetylcholinesterase inhibition, spectrophotometric; assay type: biochemical
T1 construct: Acetylcholin-esteraseinhi-bierung bei menschlichen Erythrozyten; from tissue; host or cells: human erythrocytes
T1 sequence (P22303 other isoform, or with tags, fused parts or gaps): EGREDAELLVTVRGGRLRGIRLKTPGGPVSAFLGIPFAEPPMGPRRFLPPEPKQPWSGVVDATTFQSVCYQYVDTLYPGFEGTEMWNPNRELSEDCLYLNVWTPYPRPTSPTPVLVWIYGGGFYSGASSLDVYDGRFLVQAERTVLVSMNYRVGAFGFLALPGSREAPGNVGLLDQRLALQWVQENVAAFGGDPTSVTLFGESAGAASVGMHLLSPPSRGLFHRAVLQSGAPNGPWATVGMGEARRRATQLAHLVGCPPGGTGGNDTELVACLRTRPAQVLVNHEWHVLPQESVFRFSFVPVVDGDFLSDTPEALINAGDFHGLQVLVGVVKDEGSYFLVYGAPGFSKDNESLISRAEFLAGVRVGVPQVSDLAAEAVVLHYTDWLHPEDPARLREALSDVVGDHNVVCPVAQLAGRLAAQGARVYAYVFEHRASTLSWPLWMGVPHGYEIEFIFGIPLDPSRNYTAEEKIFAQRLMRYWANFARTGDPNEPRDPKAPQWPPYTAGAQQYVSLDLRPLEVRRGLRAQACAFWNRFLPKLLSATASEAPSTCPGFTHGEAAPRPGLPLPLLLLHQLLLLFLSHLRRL
Source text: Untersucht wurden die Wirkmechanismen der erfindungsgemäßen Verbindungen: • 1. Die Wirkung auf Acetylcholinesterase menschlicher Erythrozyten auf spektrofotometrischem Wege. • 2.

[5] = system: Nerven-Muskel-Präparat von Mäusen (n.peroneus-m.extensor digitorum longus); assay: Neuromuscular transmission in isolated nerve-muscle preparation (EPP, minEPP); settings: for Stimulierung der Nerven-Muskelübertragung, in % der Amplitude: EPP: EPP = Endplattenpotential
Source text: Der Einfluß der Stoffe auf die Nerven-Muskei-Übertragung wurde am isolierten Nerven-Muskel-Präparat von Mäusen (n.peroneus-m.extensor digitorum longus) (s. Bhattacharyya B. et al. "Neuromuscular blocking action of two hemicholinium-3 analogs" Europ. J. Pharmac. 146, 155-165 /1988/) untersucht, das von Lilly-Lösung perfundiert wurde, durch die man ein Gemisch von 02 und C02 leitete. […] Das Endplattenpotential (EPP) und das Endplattenminiaturpotential (minEPP) wurden mit Hilfe eines Magnetografen aufgezeichnet und danach mit dem Computer ausgewertet. Ermittelt wurden die Frequenz (f), die Amplitude (A) und die Dauer (t) der minEPP und der EPP (s. Tabelle 2).

[6] = system: Zahl der Krämpfe; assay: Writhing test (intraperitoneal acetic acid); assay type: in vivo, Mäusen; settings: male mice
Source text: Die analgetische Wirkung der erfindungsgemäßen Verbindungen wurde an männlichen Mäusen anhand des "Krampf"-Tests (Writhing-Tests) unter intraperitonealer Injizierung von Essigsäure und des Hot-plate-Tests untersucht. Im ersten Falle wurde die analgetische Wirkung der Verbindungen anhand der prozentualen Verringerung der Zahl der Krämpfe ermittelt. Beim zweiten Test wurde die Schwelle der Schmerzempfindlichkeit (Ablecken der Pfoten) bestimmt. Die stärkste analgetische Wirkung der erfindungsgemäßen Verbindungen zeigte sich beim "Krampf"-Test. Dabei übertrafen die Salze der bicyclischen Basen Amyridin, aber nicht alle erfindungsgemäßen Verbindungen waren schwächer als Morphin (s. Tabelle 4).

[7] = system: isolierten Präparaten des rechten Vorhofs von Kaninchen; assay: Antiarrhythmic effect on isolated right atrium preparations (microelectrodes: AP duration, refractory period R, e/R); settings: isolated right atrium of rabbit; for Antiarrhythmische Wirkung: Verlängerung d. Refraktärzeit (R), in %: microelectrodes
Source text: (§1) Die antiarrhythmische Wirkung der erfindungsgemäßen Verbindungen wurde in zwei Versuchsserien untersucht, und zwar an isolierten Präparaten des rechten Vorhofs von Kaninchen und mit Hilfe des Calciumchlorid-Arrhythmie-Modells an Ratten. In den Versuchen an den isolierten Präparaten des rechten Vorhofs wurden mit Hilfe von Mikroelektroden die Dauer des AP sowie der Refraktärzeit (R) und die maximale Hemmung (e) und der Parameter (e/R) untersucht, durch den die Anfälligkeit des Myokards gegenüber der Entstehung von Arrhythmien gekennzeichnet wird. In den Versuchen an Ratten wurden diesen Calciumchlorid in einer Dosierung von 250 mg/kg injiziert. Registriert wurden das Vorliegen von Kammerflimmern und die Lebensdauer der Tiere. Sämtliche erfindungsgemäßen Verbindungen üben eine mäßige antiarrhythmische Wirkung aus. Sie steigern die Refraktärzeit des Muskels und des AP um 35 bis 145 % und verringern gleichzeitig die Anfälligkeit des Myokards, ausgedrückt durch den Parameter e/R um 10 bis 80 % (s. Tabelle 4). In bezug auf diese Wirkung waren die Salze der bicyclischen Basen wirksamer als Amyridin. Bezüglich des Vermögens, die Tiere vor Kammerflimmern und vor dem Tod nach Verabreichung von 250 mg/kg Calciumchlorid zu schützen, waren diese Verbindungen ebenfalls am stärksten wirksam. Bei Verwendung des Calciumchlorid-Arrhythmie-Modells waren viele erfindungsgemäßen Verbindungen stärker wirksam als das klassische Antiarrhythmikum Chinidin (s. M.D. Ma s kovskij, Lekarstvennye sredstva, Bd. 1, S. 401, Moskau, Medicina, 1984).

[8] = system: Wirkung von Hexenal; assay: Influence on the effect of Hexenal; assay type: in vivo, Mäusen; settings: mice
[9] = system: Orientierungsaktivität; assay: Influence on orientation activity; assay type: in vivo, Mäusen; settings: mice
Source text: Von Interesse ist der Einfluß der erfindungsgemäßen Verbindungen auf das ZNS und das Verhalten der Tiere. Alle Verbindungen zeigen eine Kombination von stimulierenden und sedativen Eigenschaften und bei höheren Dosen auch eine m-cholinomimetische Wirkung, wobei Tremor, Speichelfluß und Diarrhoe ausgelöst werden.

[10] = system: Calciumchlorid-Arrhythmie-Modells; assay: Calcium chloride arrhythmia model (250 mg/kg): ventricular fibrillation, survival; assay type: in vivo, Ratten; settings: rats, calcium chloride 250 mg/kg
Source text: as §1

[11] = ED50 = dose blocking the effect of Skopolamin in 50 % of the animals (passive avoidance, mice)
[12] = toxic dose causing tremor in 50 % of the animals
[13] = Acetylcholinesteraseinhibierung bei menschlichen Erythrozyten IK, (Mol), human erythrocyte enzyme

| Molecule | LD50 ([1]; mouse, in vivo, ip, read-out: LD50) [mg/kg] | selectivity ratio ([2]; in vivo, ED50 = dose blocking the effect of Skopolamin in 50 % of the animals (passive avoidance, mice), read-out: Verhältnis TD50 zu ED50) | TD50 ([2]; in vivo, toxic dose causing tremor in 50 % of the animals) [mg/kg] | antiamnestische Wirkung ([3]; in words, compared with Amyridin) | Einfluß auf das Gedächtnis: Zahl der Tiere in %, bei denen die Skopolaminwirkung aufgehoben wurde [3] [%] | Ki ([4]; read-out: Acetylcholinesteraseinhibierung bei menschlichen Erythrozyten IK, (Mol), human erythrocyte enzyme) [nM] | Stimulierung der Nerven-Muskelübertragung, in % der Amplitude: EPP [5] [%] | Stimulierung der Nerven-Muskelübertragung, in % der Amplitude: minEPP [5] [%] | Analgetische Wirkung: Abnahme d. Zahl der "Krämpfe" bei Mäusen, in % [6] [%] | LD50 [1] [mg/kg] | Antiarrhythmische Wirkung: Verlängerung d. Refraktärzeit (R), in % [7] [%] | Änderung der Dauer der Seitenlage, in %: Hexenal 60 mg/kg [8] | Änderung der Orientierungsaktivität, in % [9] [%] | Verhältnis TD50 zu ED50 [2, 11] | TD50 (Tremor) [2, 12] [mg/kg] | Ki [4, 13] [nM] | Antiarrhythmische Wirkung: Verlängerung d. Lebensdauer von Ratten an Hand des CaCl2-Arrhythmie-Modells, in % [10] [%] | Antiarrhythmische Wirkung: Abnahme d. Parameters θ/R, in % ([7]; parameter marks susceptibility of the myocardium to arrhythmia) [%] |
| --- | --- | --- | --- | --- | --- | --- | --- | --- | --- | --- | --- | --- | --- | --- | --- | --- | --- | --- |
| Cc1nc2c(c(N)c1-c1ccccc1)CCC2 [Verbindung 32] | 18 | 2.6 | 10 | ausgenommen | 50 | 50000 | 20 | 45 | – | – | – | – | – | – | – | – | – | – |
| Cc1nc2c(c(N)c1C)CCC2 [Verbindung 12, 4-Amino-2,3-dimethyl-6,7-dihydro-5H-1-pyrindinfumarat] | – | – | – | – | 50 | – | 32 | 70 | 90 | 15 | 110 | +30% | -15 | 8 | 7 | 520 | 130 | – |
| Cc1nc2c(c(N)c1C)CCC2 [Verbindung 7] | – | – | – | – | 80 | – | 52 | 95 | 60 | 20 | 110 | +32% | -25 | 9 | 9 | 366 | 150 | – |
| Cc1nc2c(c(N)c1C)CCC2 [Verbindung 18] | – | – | – | – | 70 | – | 45 | 80 | – | 16 | – | – | – | 6 | 9 | 145 | – | – |
| 4-Amino-2,3-dimethyl-6,7-dihydro-5H-1-pyrindinsalicylat [Verbindung 8] | – | – | – | – | 70 | – | 40 | 75 | 70 | 17 | 100 | 0% | 0 | 6 | 8 | – | 190 | 58 |
| Cc1nc2c(c(N)c1C)CCC2 [Verbindung 5] | – | – | – | – | 60 | – | 40 | 90 | 90 | 25 | 110 | 0% | -10 | 13 | 9 | 660 | 130 | – |
| Cc1nc2c(c(N)c1C)CCC2 [Verbindung 3] | – | – | – | – | 80 | – | 55 | 110 | 90 | 17 | 115 | 0% | -8 | 20 | 7 | 180 | 190 | – |
| Cc1nc2c(c(N)c1C)CCC2 [Verbindung 17] | – | – | – | – | 72 | – | 43 | 75 | – | 24 | – | – | – | 7,1 | 10 | 390 | – | – |
| CCc1c(C)nc2c(c1N)CCC2 [Verbindung 22] | – | – | – | – | 70 | – | 25 | 60 | – | 32 | – | – | – | 4 | 12 | – | – | – |

Source: patent publication EP0326134A1, “4-Amino-2,3-disubstituted-6,7-dihydro-5H-1-pyridine derivatives, process for their preparation and medicaments containing them” (NAUCHNO-ISSLEDOVATELSKY INSTITUT TEKHNOLOGII I BEZOPASNOSTI …, priority 1988, dated 1989)
